Columns and labels:
Assay type in all cases: in vivo
[1] = tested on: Cyperus iria and Echinocloa crus-galli; experiment: Action on weeds in rice (paddy rice conditions, visual rating); conditions: dammed height of water 2-3 cm, about three weeks after application; also: test concentration or dose not given here
Description: Typical rice weeds such as Echinocloa crus galli and Cyperus iria are cultivated in a greenhouse under paddy rice conditions ([…] height of water: 2-3 cm). After the treatment, the test plants are set up in a greenhouse under optimum growth conditions and are maintained in this way under these conditions throughout the test period. About three weeks after application, evaluation is made by visual rating of the damage to the plants by comparison with untreated controls.

[2] = tested on: Stellaria media, Amaranthus retroflexus, Sinapis avreuse, Avena fatura, Lolium multiflorum and Setaria viridis; experiment: Pre-emergence action against weeds (greenhouse pot test, visual rating); conditions: application rate of 3.0 kg or less of active substance per hectare, trial period of 3 to 4 weeks
In short: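 Seeds in sandy loam were treated pre-emergence by soil-surface application of WP or EC formulations at various dosages in 600–800 L water/ha. After 3–4 weeks in a greenhouse, damage or reduced emergence was rated visually against untreated controls.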

[3] = tested on: Stellaria media, Amaranthus retroflexus, Sinapis avreuse, Avena fatura, Lolium multiflorum and Setaria viridis; experiment: Post-emergence action against weeds (greenhouse pot test, visual rating); conditions: three-leaf stage, application rate of 3.0 kg or less of active substance per hectare, 3 to 4 weeks in greenhouse
In short: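 Greenhouse pot plants sown in sandy loam were sprayed at the three-leaf stage, 2–3 weeks after sowing. Compounds were formulated as wettable powders or emulsion concentrates and applied onto green parts at various dosages. Action was rated visually against untreated controls after 3–4 weeks.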

CCC(CCOc1cccc(Cl)c1)Nc1nc(N)nc(C(C)C)n1 (stereo not drawn) [Example 372]
herbicidal activity against rice weeds (visual rating of damage) [1]: very good herbicidal activity
herbicidal activity pre-emergence (damage to the plants or negative effect on emergence, rated visually) [2]: good and in most cases very good herbicidal activity
herbicidal activity post-emergence (rated visually) [3]: good and in most cases very good herbicidal activity

CCC(CCOc1cccc(OC)c1)Nc1nc(N)nc(C(C)C)n1 (stereo not drawn) [Example 376]
herbicidal activity against rice weeds (visual rating of damage) [1]: very good herbicidal activity
herbicidal activity pre-emergence (damage to the plants or negative effect on emergence, rated visually) [2]: good and in most cases very good herbicidal activity
herbicidal activity post-emergence (rated visually) [3]: good and in most cases very good herbicidal activity

CCC(CCOc1cccc(Cl)c1)Nc1nc(N)nc(C(C)(C)F)n1 (stereo not drawn) [Example 380]
herbicidal activity against rice weeds (visual rating of damage) [1]: very good herbicidal activity
herbicidal activity pre-emergence (damage to the plants or negative effect on emergence, rated visually) [2]: good and in most cases very good herbicidal activity
herbicidal activity post-emergence (rated visually) [3]: good and in most cases very good herbicidal activity

CCC(CCOc1cccc(F)c1)Nc1nc(N)nc(C(C)C)n1 (stereo not drawn) [Example 381]
herbicidal activity against rice weeds (visual rating of damage) [1]: very good herbicidal activity
herbicidal activity pre-emergence (damage to the plants or negative effect on emergence, rated visually) [2]: good and in most cases very good herbicidal activity
herbicidal activity post-emergence (rated visually) [3]: good and in most cases very good herbicidal activity

CCC(CCOc1cccc(OC)c1)Nc1nc(N)nc(C(C)(C)F)n1 (stereo not drawn) [Example 384]
herbicidal activity against rice weeds (visual rating of damage) [1]: very good herbicidal activity
herbicidal activity pre-emergence (damage to the plants or negative effect on emergence, rated visually) [2]: good and in most cases very good herbicidal activity
herbicidal activity post-emergence (rated visually) [3]: good and in most cases very good herbicidal activity

Reference: US20030186817A1, “SUBSTITUTED 2,4-DIAMINO-1,3,5-TRIAZINES, PROCESSES FOR THEIR PREPARATION AND THEIR USE AS HERBICIDES AND PLANT GROWTH REGULATORS” (priority 1998, published 2003)
